Results taken from ChEMBL document CHEMBL5036306 (J Med Chem, 2021).
Calls of active or inactive are those of the source. The rule behind the calls is not given here.

How the values were obtained:
[1] = test system: Mus musculus; experiment: Anti-alzheimer activity against amyloid beta (25 to 35) induced working memory deficit mouse assessed as step-through latency time to enter dark compartment at 1 mg/kg, ip administered for 7 days and measured on day 9 days by passive avoidance test; format: functional, organism-based; conditions: time 9.0 day
[2] = Antioxidant activity of compound assessed as trolox equivalent of AAPH radical scavenging activity at 2 to 4 uM preincubated for 15 mins followed by AAPH addition and measured every 2 mins for 90 mins by ORAC-fluorescein assay; format: functional; conditions: dose 2-4 µM, time 105.0 min
[3] = test system: Mus musculus; experiment: (§1) Anti-alzheimer activity against amyloid beta (25 to 35) induced working memory deficit mouse assessed as increase in spontaneous alternation performance by measuring total number of arm entries at 0.16 mg/kg, ip administered for 7 days and measured on day 8 by Y-maze test; format: functional, organism-based; conditions: time 8.0 day
[4] = Antioxidant activity assessed as DPPH radical scavenging activity incubated for 30 mins under dark condition by microplate reader based assay; format: functional
[5] = organism: Homo sapiens; experiment: Selectivity ratio of IC50 for recombinant HDAC3 (unknown origin) to IC50 for recombinant HDAC6 (unknown origin)
[6] = target: T1, Protein deacetylase HDAC6 (Homo sapiens, UniProt Q9UBN7); experiment: Inhibition of recombinant HDAC6 (unknown origin) using Boc-Lys(acetyl)-AMC as substrate preincubated for 1 hr followed by substrate addition and measured after 2 hrs by fluorescence based assay
T1 sequence (Q9UBN7 whole entry): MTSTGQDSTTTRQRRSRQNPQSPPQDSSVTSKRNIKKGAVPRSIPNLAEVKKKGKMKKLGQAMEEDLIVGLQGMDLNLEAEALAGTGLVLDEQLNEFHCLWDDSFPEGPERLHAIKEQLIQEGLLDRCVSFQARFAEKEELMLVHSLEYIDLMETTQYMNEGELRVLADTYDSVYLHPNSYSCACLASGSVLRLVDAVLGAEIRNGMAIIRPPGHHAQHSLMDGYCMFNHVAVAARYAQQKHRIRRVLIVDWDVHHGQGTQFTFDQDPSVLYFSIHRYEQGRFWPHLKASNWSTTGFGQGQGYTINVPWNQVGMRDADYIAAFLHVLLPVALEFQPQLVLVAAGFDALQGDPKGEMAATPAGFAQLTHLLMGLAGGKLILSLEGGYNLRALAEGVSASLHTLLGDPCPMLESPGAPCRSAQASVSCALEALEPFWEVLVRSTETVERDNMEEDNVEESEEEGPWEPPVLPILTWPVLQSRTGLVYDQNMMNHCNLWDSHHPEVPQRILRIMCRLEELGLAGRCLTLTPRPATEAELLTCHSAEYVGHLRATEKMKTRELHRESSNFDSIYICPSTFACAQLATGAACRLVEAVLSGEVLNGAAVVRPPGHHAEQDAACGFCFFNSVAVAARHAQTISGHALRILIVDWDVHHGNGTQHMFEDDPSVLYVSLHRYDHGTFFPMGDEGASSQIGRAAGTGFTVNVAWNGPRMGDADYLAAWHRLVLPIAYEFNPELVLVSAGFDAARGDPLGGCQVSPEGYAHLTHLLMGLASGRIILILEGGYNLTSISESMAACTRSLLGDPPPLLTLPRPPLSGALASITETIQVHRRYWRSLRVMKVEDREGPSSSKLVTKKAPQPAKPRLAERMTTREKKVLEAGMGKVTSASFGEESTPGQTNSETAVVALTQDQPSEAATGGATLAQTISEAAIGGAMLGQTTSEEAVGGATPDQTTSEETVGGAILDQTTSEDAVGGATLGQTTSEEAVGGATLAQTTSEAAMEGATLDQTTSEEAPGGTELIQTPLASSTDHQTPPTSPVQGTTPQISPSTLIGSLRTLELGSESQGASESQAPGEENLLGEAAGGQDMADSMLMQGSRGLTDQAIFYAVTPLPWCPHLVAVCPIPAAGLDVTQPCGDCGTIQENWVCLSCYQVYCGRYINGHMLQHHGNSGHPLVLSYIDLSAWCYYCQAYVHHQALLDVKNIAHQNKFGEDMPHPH

[7] = target: T2, Histone deacetylase 3 (Homo sapiens, UniProt O15379); experiment: Inhibition of recombinant HDAC3 (unknown origin) using Boc-Lys(acetyl)-AMC as substrate preincubated for 1 hr followed by substrate addition and measured after 2 hrs by fluorescence based assay
[8] = test system: HT-22; experiment: Neuroprotection against iodoacetic acid-induced ATP depletion in mouse HT-22 cells assessed as cell viability at 50 uM; format: functional, cell-based
[9] = test system: HT-22; experiment: Neuroprotection against glutamate-induced oxytosis in mouse HT-22 cells assessed as cell viability at 50 uM; format: functional, cell-based
[10] = Neurotoxicity in mouse HT-22 cells assessed as cell survival at 10 uM incubated for 48 hrs by MTT assay; format: cell-based; conditions: for viability at 48 h, 10 µM: HT-22 cells, read-out: Activity
[11] = Toxicity in mouse model of Alzheimer's disease assessed as drug tolerability at 0.3 to 3 mg/kg, ip measured after 7 days; format: organism-based; conditions: in vivo, 168 h, dose 0.3-3 mg/kg, time 7 day
[12] = Metal chelating activity assessed as Fe2+ -ferrozoine complex formation at 10 to 200 uM preincubated for 2 mins followed by ferrozine addition and further incubated for 10 mins by microplate reader based assay; conditions: dose 10-200 µM, time 12.0 min
[13] = Metal chelating activity assessed as compound-Cu2+ complex formation at 10 to 200 uM incubated for 2 mins followed by pyrocatechol violet addition and further incubated for 10 mins by microplate reader based assay; conditions: dose 10-200 µM, time 12.0 min
[14] = Metal chelating activity compound-Zn2+ complex formation at 10 to 200 uM preincubated for 2 mins followed by di-thizone addition by microplate reader based assay; conditions: dose 10-200 µM
[15] = test system: Mus musculus; experiment: Anti-alzheimer activity against amyloid beta (25 to 35) induced working memory deficit mouse assessed as step-through latency time to enter dark compartment at 0.3 to 3 mg/kg, ip administered for 7 days and measured on day 9 days by passive avoidance test; format: functional, organism-based; conditions: dose 0.3-3 mg/kg, time 9.0 day
[16] = test system: Mus musculus; experiment: Anti-alzheimer activity against amyloid beta (25 to 35) induced working memory deficit mouse assessed as step-through latency time to enter dark compartment at 1 mg/kg, ip administered for 7 days and measured on day 9 days in presence of melatonin and ferulic acid by passive avoidance test; format: functional, organism-based; conditions: time 7.0 day
[17] = test system: Mus musculus; experiment: as §1, with “0.3” for “0.16”, “8 in presence of melatonin and ferulic acid” for “8”; format: functional, organism-based; conditions: time 8.0 day
[18] = test system: Mus musculus; experiment: Neuroprotection against mouse model of Alzheimer's disease at 1 mg/kg; format: functional, organism-based
[19] = test system: Mus musculus; experiment: Cognitive enhancing effect in mouse model of Alzheimer's disease at 1 mg/kg; format: functional, organism-based
[20] = test system: Mus musculus; experiment: Anti-alzheimer activity against amyloid beta (25 to 35) induced working memory deficit in mouse assessed as increase in spontaneous alternation performance at 1 mg/kg, ip administered for 7 days and measured on day 8 by Y-maze test; format: functional, organism-based; conditions: time 7.0 day
[21] = target: T3, Protein deacetylase HDAC6 (Homo sapiens) (UniProt Q9UBN7); experiment: Inhibition of recombinant HDAC6 (unknown origin) at 1 uM using Boc-Lys(Ac)-AMC as substrate preincubated for 1 hr followed by substrate addition and measured after 2 hrs by fluorescence based assay; conditions: time 3.0 hrs
T3 sequence (whole entry): T1 sequence (Q9UBN7 whole entry)

[22] = target: T2, Histone deacetylase 3; experiment: Inhibition of recombinant HDAC3 (unknown origin) at 1 uM using Boc-Lys(Ac)-AMC as substrate preincubated for 1 hr followed by substrate addition and measured after 2 hrs by fluorescence based assay relative to control; conditions: time 3.0 hrs

T2 sequence (O15379 whole entry): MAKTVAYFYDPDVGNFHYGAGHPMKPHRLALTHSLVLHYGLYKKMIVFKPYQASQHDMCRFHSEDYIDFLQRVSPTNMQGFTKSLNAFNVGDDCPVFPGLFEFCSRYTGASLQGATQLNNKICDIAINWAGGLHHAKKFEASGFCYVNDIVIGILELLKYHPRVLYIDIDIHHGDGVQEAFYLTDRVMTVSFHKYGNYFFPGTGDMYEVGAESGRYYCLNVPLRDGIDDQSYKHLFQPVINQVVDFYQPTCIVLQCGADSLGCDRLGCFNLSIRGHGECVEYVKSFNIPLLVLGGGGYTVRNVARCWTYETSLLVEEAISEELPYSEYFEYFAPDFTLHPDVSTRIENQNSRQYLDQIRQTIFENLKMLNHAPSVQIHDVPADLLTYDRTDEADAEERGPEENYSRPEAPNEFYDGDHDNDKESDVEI

SMILES: COc1ccc2[nH]cc(CCNC(C)=O)c2c1 [MELATONIN]
- Activity [1]: inactive
- ORAC antioxidant capacity (Trolox equivalents) [2]: 2
- Activity [3]: inactive
- EC50 [4]: > 6000 µM

SMILES: COc1ccc2[nH]cc(CCNC(=O)CN(CCCCCC(=O)NO)C(=O)/C=C/c3ccc(O)c(OC)c3)c2c1
- Ratio IC50 [5]: 2
- IC50 [6]: 0.057 µM
- ORAC antioxidant capacity (Trolox equivalents) [2]: 3.2
- IC50 [7]: 0.121 µM
- EC50 [4]: 19.1 µM

SMILES: COc1ccc2[nH]cc(CCNC(=O)CN(Cc3ccc(/C=C/C(=O)NO)cc3)C(=O)/C=C/c3ccc(O)c(OC)c3)c2c1
- Ratio IC50 [5]: 2
- IC50 [6]: 0.0532 µM
- ORAC antioxidant capacity (Trolox equivalents) [2]: 1.2
- IC50 [7]: 0.108 µM
- EC50 [4]: 8.3 µM

SMILES: COc1ccc2[nH]cc(CCN(Cc3ccc(/C=C/C(=O)NO)cc3)C(=O)/C=C/c3ccc(O)c(OC)c3)c2c1
- Activity [8]: Active
- Ratio IC50 [5]: 6
- IC50 [6]: 0.0256 µM
- ORAC antioxidant capacity (Trolox equivalents) [2]: 1
- IC50 [7]: 0.163 µM
- EC50 [4]: 8.5 µM
- Activity [9]: Active

SMILES: COc1ccc2[nH]cc(CCNC(=O)/C=C/c3ccc(C(=O)NO)cc3)c2c1
- Ratio IC50 [5]: < 1
- IC50 [6]: 0.0337 µM
- ORAC antioxidant capacity (Trolox equivalents) [2]: 2
- IC50 [7]: 0.0197 µM
- EC50 [4]: 65 µM

SMILES: COc1ccc2[nH]cc(CCNCc3ccc(/C=C/C(=O)NO)cc3)c2c1
- viability at 48 h, 10 µM [10]: 50%
- Ratio IC50 [5]: < 1
- IC50 [6]: 0.0214 µM
- ORAC antioxidant capacity (Trolox equivalents) [2]: 2.4
- IC50 [7]: 0.0051 µM
- EC50 [4]: 17.1 µM

SMILES: COc1ccc2c(c1)c(CCNC(C)=O)cn2Cc1ccc(/C=C/C(=O)NO)cc1
- Ratio IC50 [5]: 3
- IC50 [6]: 0.0688 µM
- ORAC antioxidant capacity (Trolox equivalents) [2]: 1.4
- IC50 [7]: 0.182 µM
- EC50 [4]: 31.4 µM

SMILES: COc1ccc2[nH]cc(CCNC(=O)c3ccc(/C=C/C(=O)NO)cc3)c2c1
- viability at 48 h, 10 µM [10]: 60%
- Ratio IC50 [5]: < 1
- IC50 [6]: 0.0191 µM
- ORAC antioxidant capacity (Trolox equivalents) [2]: 2
- IC50 [7]: 0.0036 µM
- EC50 [4]: 25.2 µM

SMILES: COc1ccc2[nH]cc(CCN(CCCCCC(=O)NO)C(=O)/C=C/c3ccc(O)c(OC)c3)c2c1
- Ratio IC50 [5]: 2
- IC50 [6]: 0.353 µM
- ORAC antioxidant capacity (Trolox equivalents) [2]: 2.8
- IC50 [7]: 0.811 µM
- EC50 [4]: 8.9 µM

SMILES: O=C(CCCCCCNC(=O)c1cnc(N(c2ccccc2)c2ccccc2)nc1)NO [RICOLINOSTAT]
- Activity ([10]; ht-22, 48 h, 10 µM): Toxic
- Activity [11]: Non-Toxic
- ORAC antioxidant capacity (Trolox equivalents) [2]: 0.5
- Activity [12]: Active
- Activity [13]: Active
- Activity [14]: Active
- Activity [15]: Active
- Activity [16]: inactive
- EC50 [4]: 255 µM
- Activity [17]: inactive
- Activity [18]: Active
- Activity [19]: Active
- Activity [20]: Active

SMILES: COc1ccc2[nH]cc(CCNCc3ccc(C(=O)NO)cc3)c2c1
- inhibition [21]: 43%
- ORAC antioxidant capacity (Trolox equivalents) [2]: 3
- EC50 [4]: 66.7 µM
- inhibition [22]: 26%

SMILES: COc1cc(/C=C/C(=O)O)ccc1O [FERULATE]
- ORAC antioxidant capacity (Trolox equivalents) [2]: 3.1
- EC50 [4]: 13.7 µM

SMILES: COc1ccc2[nH]cc(CCNC(=O)c3ccc(C(=O)NO)cc3)c2c1
- inhibition [21]: 88%
- ORAC antioxidant capacity (Trolox equivalents) [2]: 2.4
- EC50 [4]: 62 µM
- inhibition [22]: 87%

SMILES: COc1ccc2c(c1)c(CCNC(C)=O)cn2CCCCCC(=O)NO
- Ratio IC50 [5]: 9
- IC50 [6]: 0.0523 µM
- ORAC antioxidant capacity (Trolox equivalents) [2]: 1.6
- IC50 [7]: 0.494 µM
- EC50 [4]: 262 µM

SMILES: COc1ccc2[nH]cc(CCNC(=O)CCCCC(=O)NO)c2c1
- ORAC antioxidant capacity (Trolox equivalents) [2]: 3
- EC50 [4]: 292 µM
- inhibition [22]: 25%

SMILES: COc1ccc2[nH]cc(CCNC(=O)CN(Cc3ccc(C(=O)NO)cc3)C(=O)/C=C/c3ccc(O)c(OC)c3)c2c1
- inhibition [21]: 19%
- ORAC antioxidant capacity (Trolox equivalents) [2]: 1.6
- EC50 [4]: 15.2 µM
